Test results reported in patent US20220079962A1, “NUTRITIONAL COMPOSITION COMPRISING 2'FUCOSYLLACTOSE AND DIETARY BUTYRATE” (N.V. Nutricia, priority 2019, published 2022).

Key:
[1] = test system: Caco-2 cell monolayer; experiment: DON-induced impairment of Caco-2 cell monolayer integrity (TEER, lucifer yellow flux); type: cell-based, human; details: 24 h pretreatment with 0.75 wt. % GL, then DON 4.2 μM 24 h; FIGS. 1A-D
Experimental: Caco-2 cells were used according to established methods. In brief: cells were cultured in Dulbecco's modified Eagle medium (DMEM) and seeded at a density of 0.3×10^5 cells into 0.3 cm^2 high pore density (0.4 μm) inserts with a polyethylene terephthalate membrane (BD Biosciences, Franklin Lakes, N.J., USA) placed in a 24-well plate. The Caco-2 cells were maintained in a humidified atmosphere of 95 air and 5% CO2 at 37° C.
Caco-2 cell monolayers were thus grown in a transwell system, which is a model for intestinal barrier function. The monolayers were pretreated for 24 h with different GLs, including beta3′-GL, alpha3′-GL, beta4′-GL and beta6′-GL in a concentration of 0.75 wt. % of the GL, before being exposed to the fungal toxin deoxynivalenol (DON), which is a trigger and model compound to impair intestinal barrier. DON was diluted to a final concentration of 4.2 μM in complete cell medium and added to the apical side as well as to the basolateral side of the transwell inserts. […] Incubation with DON was 24 h.
Measurements of the transepithelial electrical resistance (TEER) and lucifer yellow (LY) permeability were conducted to investigate barrier integrity. For TEER measurements a Millicel-ERS voltohmmeter connected to a pair of chopsticks electrodes was used to measure the TEER values. Results are expressed as a percentage of the initial value. For paracellular tracer flux assay the membrane impermeable lucifer yellow (LY) (Sigma, St Louis, Mo., USA) was added in a concentration of 16 μg/ml to the apical compartment in the transwell plate for 4 h, and the paracellular flux was determined by measuring the fluorescence intensity in the basolateral compartment with a spectrophotofluorimeter (FLUOstar Optima, BMG Labtech, Offenburg, Germany) set at excitation and emission wavelengths of 410 and 520 nm, respectively. Release of interleukin-8 (IL-8 or CXCL8), which is a typical marker for inflammation, was quantified in the medium of the apical side and the basolateral side of the Caco-2 transwell inserts in response to the treatments. CXCL8 concentrations were measured by using the human IL-8 ELISA assay (BD Biosciences, Pharmingem, San Diego, Calif., USA) according to manufacturer's instructions. For more details on materials and methods see Akbari et al, 2016, Eur J Nutr. 56(5):1919-1930.

[2] = test system: T84 human intestinal epithelial cells; experiment: T84 monolayer barrier integrity (TEER) with IL-4; type: cell-based
Experimental: T84 human intestinal epithelial cells are commonly used to study intestinal barrier integrity in vitro. T84 cells (ATCC, USA) were cultured on 12 mm transwell inserts (0.4 μm, Corning Costrar, USA) in DMEM-F12 glutamax with penicillin-streptomycin (100 IU/ml), supplemented with 5% FBS-Hl. T84 cells were used 14 days after reaching confluence. Monolayers of T84 cultured on transwell filters were pre-incubated for 48 h with or without butyrate. These samples were subsequently incubated for an additional 48 h in the presence of IL-4 (25 ng/ml). IL-4 was added to the basolateral compartment; medium and additives were changed every 24 h.
Epithelial barrier integrity was assessed by measuring transepithelial resistance (TEER; Ω×cm^2) with the epithelial volt-ohm meter (EVOM; World Precision Instruments, Germany).

[3] = test system: human peripheral blood mononuclear cells (PBMC); experiment: PBMC cytokine levels, unstimulated condition; type: cell-based
Source text: Isolation of PBMC from healthy donors: Human peripheral blood mononuclear cells (PBMC) from healthy donors were isolated from buffy coats (Sanquin, Amsterdam, the Netherlands). PBMC were obtained by centrifugation using Leucosep tubes (Greiner Bio-One). […] After lysis, the PBMC were resuspended in freezing medium (70% RPMI 1640 medium (Gibco, Thermo Fisher Technologies) supplemented with 10% heat-inactivated FCS and 100 U/ml penicillin-streptomycin, 20% heat-inactivated FCS and 10% DMSO (Sigma)) and cryopreserved. PBMC activation model: PBMC (0.2.10^6 cell/well) were cultured in 96-well flat bottom plates (Corning). For 24 hours the cells were pre-incubated with 2'-FL (Jennewein), 3'-GL (0-0.3% w/v; […] Sigma Aldrich) and combinations thereof. Subsequently, the cells were CD3/CD28-activated (Pelicluster CD3 and Pelicluster CD28, Sanquin) for an additional 24 hours. After incubation, IFNγ was measured by ELISA in the supernatants (see below). […] Roche) and/or 10% Triton (5 μl; negative control). […] Cytokine production of PBMC: PBMC were incubated with indicated reagents. After incubation, the supernatants were collected and IL2, IL6, IL10, IL13, IL21, TNFα, IFNγ, MIF, CCL1, CCL13, CCL17, CCL20, CCL22 and CXCL8-11 levels were measured by conducting a validated multiplex immunoassay based on Luminex technology (xMAP, Luminex Austin Tex. USA). Acquisition was conducted with the Biorad […] (Biorad laboratories, Hercules USA) in combination with xPONENT software version 4.2 (Luminex). Data was analyzed by 5-parametric curve fitting using Bio-Plex Manager software, version 6.1.1 (Biorad). After PBMC stimulation, cell culture supernatants were collected, after which cytokine responses were measured in order to test immune responsiveness of the cells. The levels of cytokines measured in stimulated conditions were corrected for the (low) levels of the cytokines measured in non-stimulated conditions. In addition, since each donor is reacting in its own efficiency onto the T cell stimulus, we calculated the individual index of cytokine response by dividing the intervention induced response by the basal stimulated response.

[4] = test system: human peripheral blood mononuclear cells (PBMC); experiment: PBMC cell activity (WST-1); type: cell-based; details: after 24 h
Experimental: PBMC activation model: PBMC (0.2.10^6 cell/well) were cultured in 96-well flat bottom plates (Corning). For 24 hours the cells were pre-incubated with 2′-FL (Jennewein), 3′-GL (0-0.3% w/v; […] Sigma Aldrich) and combinations thereof. Subsequently, the cells were CD3/CD28-activated (Pelicluster CD3 and Pelicluster CD28, Sanquin) for an additional 24 hours. After incubation, IFNγ was measured by ELISA in the supernatants (see below). […] Roche) and/or 10% Triton (5 μl; negative control).

Row | Structure (SMILES) | effect on DON-induced loss of epithelial barrier integrity (TEER, LY flux) [1] | IL-4 induced disruption of intestinal barrier function [2] | IL10 level compared to blanc control ([3]; 0.2% 2′-FL, 0.2 mM butyrate) | CCL20 level compared to blanc control ([3]; unstimulated) | Immune cell activity as measured by WST [4]
1 | OC[C@H]1O[C@H](O[C@H]2[C@@H](O)[C@@H](CO)O[C@@H](O[C@H]3[C@H](O)[C@@H](O)C(O)O[C@@H]3CO)[C@@H]2O)[C@H](O)[C@@H](O)[C@H]1O (stereo partly drawn) [alpha3′-GL, Gal (alpha 1-3)-Gal (beta 1-4)-Glc, reference compound] | did not prevent the DON-induced disrupted intestinal barrier | – | – | – | –
2 | OC[C@H]1O[C@@H](O[C@@H]2[C@H](O)[C@@H](O)[C@H](O[C@H]3[C@H](O)[C@@H](O)C(O)O[C@@H]3CO)O[C@@H]2CO)[C@H](O)[C@@H](O)[C@H]1O (stereo partly drawn) [beta4′-GL, Gal (beta 1-4)-Gal (beta 1-4)-Glc, reference compound] | did not show a significant effect | – | – | – | –
3 | OC[C@H]1O[C@@H](OC[C@H]2O[C@@H](O[C@H]3[C@H](O)[C@@H](O)C(O)O[C@@H]3CO)[C@H](O)[C@@H](O)[C@H]2O)[C@H](O)[C@@H](O)[C@H]1O (stereo partly drawn) [beta6′-GL, Gal (beta 1-6)-Gal (beta 1-4)-Glc, reference compound] | did not show a significant effect | – | – | – | –
4 | CCCC(=O)O [butyrate, butyric acid] | – | ameliorated | did not have an effect on IL10 levels | did not have a statistically significant effect | did not influence immune cell metabolic activity
